The results in this text go back to patent US20100210617A1, “Aryl-Alkylamines And Heteroaryl-Alkylamines As Protein Kinase Inhibitors” (ASTEX THERAPEUTICS LIMITED, priority 2005, published 2010).

Assay [1] concerns the target T1, protein kinase B (PKB), fusion protein PKB-PIF (Homo sapiens, UniProt P31751).
T1 construct: made in house
Briefly: Measurement of PKB kinase inhibitory activity (IC50). Particulars: 0.6 nM enzyme, 30 μM ATP/γ33P-ATP, 25 μM AKTide-2T substrate, 20 minutes; read-out: IC50, concentration required to inhibit 50% of the PKB activity. It is filed as biochemical. Here is the method: The inhibition of protein kinase B (PKB) activity by compounds can be determined essentially as described by Andjelkovic et al. (Mol. Cell. Biol. 19, 5061-5072 (1999)) but using a fusion protein described as PKB-PIF and described in full by Yang et al (Nature Structural Biology 9, 940-944 (2002)). […] A final concentration of 0.6 nM enzyme is used in a buffer that includes 20 mM MOPS pH 7.2, 30 μM ATP/γ^33P-ATP and 25 μM substrate. Compounds are added in DMSO solution to a final DMSO concentration of 2.5%. The reaction is allowed to proceed for 20 minutes before addition of excess orthophosphoric acid to quench activity. The reaction mixture is transferred to a phosphocellulose filter plate where the peptide binds and the unused ATP is washed away. After washing, scintillant is added and the incorporated activity measured by scintillation counting.
The % inhibition of the PKB activity is calculated and plotted in order to determine the concentration of test compound required to inhibit 50% of the PKB activity (IC50).

A further assay addresses T2, PKA catalytic domain (Homo sapiens, UniProt P17612).
T2 construct: using the PKA catalytic domain from Upstate Biotechnology (#14-440); purchased Upstate Biotechnology 14-440
Kind of assay: Measurement of PKA kinase inhibitory activity (IC50). Format: biochemical. Particulars: 1 nM enzyme, 40 μM ATP/γ33P-ATP, 5 μM peptide substrate […], 20 minutes; read-out: IC50, concentration required to inhibit 50% of the PKA activity. The protocol:
A final concentration of 1 nM enzyme is used in a buffer that includes 20 mM MOPS pH 7.2, 40 μM ATP/γ^33P-ATP and 5 μM substrate. Compounds are added in dimethylsulphoxide (DMSO) solution to a final DMSO concentration of 2.5%. The reaction is allowed to proceed for 20 minutes before addition of excess orthophosphoric acid to quench activity. Unincorporated γ^33P-ATP is then separated from phosphorylated proteins on a Millipore MAPH filter plate. The plates are washed, scintillant is added and the plates are then subjected to counting on a Packard Topcount.

Structures can show the parent of a compound that is named as a salt.

T1 sequence (P31751 with tags, fused parts or gaps limits assumed): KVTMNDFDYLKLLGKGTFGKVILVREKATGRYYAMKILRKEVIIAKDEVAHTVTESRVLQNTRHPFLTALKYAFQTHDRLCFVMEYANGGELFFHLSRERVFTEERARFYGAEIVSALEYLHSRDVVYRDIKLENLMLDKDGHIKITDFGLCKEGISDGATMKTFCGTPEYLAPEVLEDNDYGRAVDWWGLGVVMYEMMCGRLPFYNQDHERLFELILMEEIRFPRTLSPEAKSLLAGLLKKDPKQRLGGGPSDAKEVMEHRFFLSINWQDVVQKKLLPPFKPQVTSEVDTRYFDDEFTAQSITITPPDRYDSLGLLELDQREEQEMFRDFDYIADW

`NCCC(O)(c1ccc(Cl)cc1)c1ccc(-c2cn[nH]c2)cc1` (racemic) [Example 92, 3-Amino-1-(4-chloro-phenyl)-1-[4-(1H-pyrazol-4-yl)-phenyl]-propan-1-ol]: the IC50 (in assay [1]; on PKA catalytic domain) was under 100 nM throughout. For `NCCC(c1ccc(-c2cn[nH]c2)cc1)c1ccc(Cl)c(F)c1` (stereo not shown) [Example 1, 3-(4-Chloro-3-fluoro-phenyl)-3-[4-(1H-pyrazol-4-yl)-phenyl]-propylamine], the IC50 (in assay [1]; at PKA catalytic domain) was under 100 nM throughout. On to `NCC[C@H](c1ccc(-c2cn[nH]c2)cc1)c1ccc(Cl)c(Cl)c1` [Example 2, (R)-3-(3,4-Dichloro-phenyl)-3-[4-(1H-pyrazol-4-yl)-phenyl]-propylamine], for which the IC50 in assay [1] is under 100 nM. As for `COc1cccc(OCC2(c3ccc(-c4c[nH]nc4C)cc3)CCNCC2)c1` [Example 77, 4-(3-Methoxy-phenoxymethyl)-4-[4-(3-methyl-1H-pyrazol-4-yl)-phenyl]-piperidine], the IC50 (in assay [1]; at PKA catalytic domain) was under 1000 nM throughout. Consider `Cc1n[nH]cc1-c1ccc(C(O)(CN)c2ccc(Cl)cc2)cc1` (stereo not shown) [Example 79, 2-Amino-1-(4-chloro-phenyl)-1-[4-(3-methyl-1H-pyrazol-4-yl)-phenyl]-ethanol], for which the IC50 (in assay [1]; at PKA catalytic domain) was under 100 nM in each case. For `CCc1n[nH]cc1-c1ccc(C(O)(CN)c2ccc(Cl)cc2)cc1` (stereo not shown) [Example 80, 2-Amino-1-(4-chloro-phenyl)-1-[4-(3-ethyl-1H-pyrazol-4-yl)-phenyl]-ethanol], the IC50 (in assay [1]; at PKA catalytic domain) was under 100 nM in each case.

Turning to `Clc1ccc(C2(c3ccc(-c4cn[nH]c4)cc3)CCNC2)cc1` (stereo not shown) [Example 81, 4-{4-[3-(4-Chloro-phenyl)-pyrrolidin-3-yl]-phenyl}-1H-pyrazole formate], the IC50 (in assay [1]; at PKA catalytic domain) was under 1000 nM throughout. Take `COc1ccc(C2(c3ccc(-c4cn[nH]c4)cc3)CNC2)cc1` [Example 82, 4-{-4-[3-(4-Methoxy-phenyl)-azetidin-3-yl]-phenyl}-1H-pyrazole formate]: the IC50 (in assay [1]; at PKA catalytic domain) was under 1000 nM in each case. In the case of `c1cc(C2(c3ccc4c(c3)OCCO4)CCNCC2)ccc1-c1cn[nH]c1` [Example 83, 4-(2,3-Dihydro-benzo[1,4]dioxin-6-yl)-4-[4-(1H-pyrazol-4-yl)-phenyl]-piperidine], the IC50 (in assay [1]; on PKA catalytic domain) was under 100 nM each time. Regarding `Clc1cccc(C2(c3ccc(-c4cn[nH]c4)cc3)CCNCC2)c1` [Example 84, 4-(3-Chloro-phenyl)-4-[4-(1H-pyrazol-4-yl)-phenyl]-piperidine], the IC50 (in assay [1]; at PKA catalytic domain) was under 100 nM each time. For the molecule `COc1ccc(-c2cccc(C3(c4ccc(-c5cn[nH]c5)cc4)CCNCC3)c2)cc1` [Example 85, 4-(4′-Methoxy-biphenyl-3-yl)-4-[4-(1H-pyrazol-4-yl)-phenyl]-piperidine dihydrochloride], the IC50 in assay [1] is under 1000 nM; at PKA catalytic domain, under 100 nM. In the case of `COc1ccc(C2(c3ccc(-c4c[nH]nc4C)cc3)CCNCC2)cc1` [Example 86, 4-(4-Methoxy-phenyl)-4-[4-(3-methyl-1H-pyrazol-4-yl)-phenyl]piperidine dihydrochloride], the IC50 (in assay [1]; on PKA catalytic domain) was under 100 nM throughout.

For the molecule `CCc1[nH]ncc1-c1ccc(C2(c3ccc(Cl)cc3)CCNCC2)cc1` [Example 87, 4-(4-Chloro-phenyl)-4-[4-(5-ethyl-1H-pyrazol-4-yl)-phenyl]-piperidine], the IC50 (in assay [1]; at PKA catalytic domain) was under 1000 nM each time. `Clc1ccc(C2(c3ccc(-c4cn[nH]c4C4CC4)cc3)CCNCC2)cc1` [Example 88, 4-(4-Chloro-phenyl)-4-[4-(5-cyclopropyl-1H-pyrazol-4-yl)-phenyl]-piperidine]: the IC50 in assay [1] was under 100 nM; at PKA catalytic domain, under 1000 nM. On the same counts, the results for `CN(C)c1cccc(C2(c3ccc(-c4cn[nH]c4)cc3)CCNCC2)c1` [Example 89, Dimethyl-(3-{4-[4-(1H-pyrazol-4-yl)-phenyl]-piperidin-4-yl}-phenyl)-amine] are under 1000 nM and under 1000 nM. The like results for `COc1ccc(C2(c3ccc(-c4cn[nH]c4)cc3)CCNCC2)cn1` [Example 90, 4-(2-Methoxy-5-pyridin-yl)-4-[4-(1H-pyrazol-4-yl)-phenyl]-piperidine] were, in that order, under 1000 nM and under 100 nM. Turning to `NCC(O)(c1ccc(Cl)cc1)c1ccc(-c2cn[nH]c2)cn1` (stereo not shown) [Example 91, 2-Amino-1-(4-chloro-phenyl)-[5-(1H-pyrazol-4-yl)-pyridin-2-yl]-ethanol hydrochloride], the IC50 was under 1000 nM in assay [1] and under 100 nM on PKA catalytic domain. As to `Cc1n[nH]cc1-c1ccc(C2(COc3cccc(-c4nc5ccccc5o4)c3)CCNCC2)cc1` [Example 93, 2-(3-{4-[4-(3-Methyl-1H-pyrazol-4-yl)-phenyl]-piperidin-4-ylmethoxy}-phenyl)-benzooxazole], the IC50 in assay [1] is under 100 nM. Take `NCCC(O)(c1ccc(Cl)cc1)c1ccc(-c2cn[nH]c2)cc1F` (stereo not shown) [Example 94, 3-Amino-1-(4-chlorophenyl)-1-[2-fluoro-4-(1H-pyrazol-4-yl)-phenyl]-propan-1-ol-acetic acid salt]: the IC50 (in assay [1]; on PKA catalytic domain) was under 100 nM throughout.

Regarding `NCCC(O)(c1ccc(-c2cn[nH]c2)cc1)c1ccc(Cl)c(F)c1` (stereo not shown) [Example 95, 3-Amino-1-(4-chloro-3-fluoro-phenyl)-1-[4-(1H-pyrazol-4-yl)-phenyl]-propan-1-ol], the IC50 (in assay [1]; at PKA catalytic domain) was under 100 nM each time. For `NCCC(O)(c1ccc(-c2cn[nH]c2)cc1)c1ccc(Cl)c(Cl)c1` (stereo not shown) [Example 96, 3-Amino-1-(3,4,-dichlorophenyl)-1-[4-(1H-pyrazol-4-yl)-phenyl]-propan-1-ol], the IC50 (in assay [1]; at PKA catalytic domain) was under 100 nM throughout. In the case of `NCC[C@@](O)(c1ccc(Cl)cc1)c1ccc(-c2cn[nH]c2)cc1` [Example 99A, (S)-3-Amino-1-(4-chloro-phenyl)-1-[4-(1H-pyrazol-4-yl)-phenyl]-propan-1-ol], the IC50 (in assay [1]; on PKA catalytic domain) was under 100 nM throughout. As to `NCC[C@](O)(c1ccc(Cl)cc1)c1ccc(-c2cn[nH]c2)cc1` [Example 99B, (R)-3-Amino-1-(4-chloro-phenyl)-1-[4-(1H-pyrazol-4-yl)-phenyl]-propan-1-ol], the IC50 in assay [1] was under 100 nM.
